What was measured:
Assay type in all cases: in vivo
[1] = tested on: barnyardgrass (Echinochloa crus-galli); experiment: Test A preemergence barnyardgrass; conditions: Echinochloa crus-galli, pre-emergence, 240 h, 0 to 100 scale, 0 no effect, 100 complete control, read-out: Barnyardgrass plant response rating; for pest or weed control at 125 g/ha: 125 g ai/ha; for pest or weed control at 500 g/ha: 500 g ai/ha
How it was run: (§1)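 Both application timings used the same loam-and-sand medium and the same solvent–surfactant formulation. Postemergence plants were 2–10 cm at the one- to two-leaf stage. After roughly 10 d of greenhouse growth, injury was judged visually against untreated plants, where 0 is no effect and 100 complete control.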

kochia (Kochia scoparia) [2] = experiment: Test A preemergence kochia; conditions: Bassia scoparia, pre-emergence, 240 h, 0 to 100 scale, 0 no effect, 100 complete control, read-out: Kochia plant response rating; for pest or weed control at 125 g/ha: 125 g ai/ha; for pest or weed control at 500 g/ha: 500 g ai/ha
How it was run: as §1

[3] = tested on: ragweed (common ragweed, Ambrosia elatior); experiment: Test A preemergence ragweed; conditions: Ambrosia artemisiifolia, pre-emergence, 240 h, 0 to 100 scale, 0 no effect, 100 complete control, read-out: Ragweed plant response rating; for pest or weed control at 125 g/ha: 125 g ai/ha; for pest or weed control at 500 g/ha: 500 g ai/ha
How it was run: as §1

[4] = tested on: ryegrass, Italian (Italian ryegrass, Lolium multiflorum); experiment: Test A preemergence ryegrass, Italian; conditions: Lolium multiflorum, pre-emergence, 240 h, 0 to 100 scale, 0 no effect, 100 complete control, read-out: Ryegrass, Italian plant response rating; for pest or weed control at 125 g/ha: 125 g ai/ha; for pest or weed control at 500 g/ha: 500 g ai/ha
How it was run: as §1

[5] = tested on: foxtail, giant (giant foxtail, Setaria faberii); experiment: Test A preemergence foxtail, giant; conditions: Setaria faberi, pre-emergence, 240 h, 0 to 100 scale, 0 no effect, 100 complete control, read-out: Foxtail, Giant plant response rating; for pest or weed control at 125 g/ha: 125 g ai/ha; for pest or weed control at 500 g/ha: 500 g ai/ha
How it was run: as §1

[6] = tested on: pigweed (Amaranthus retroflexus); experiment: Test A preemergence pigweed; conditions: Amaranthus retroflexus, pre-emergence, 240 h, 0 to 100 scale, 0 no effect, 100 complete control, read-out: Pigweed plant response rating; for pest or weed control at 125 g/ha: 125 g ai/ha; for pest or weed control at 500 g/ha: 500 g ai/ha
How it was run: as §1

[7] = tested on: barnyardgrass (Echinochloa crus-galli); experiment: Test A postemergence barnyardgrass; conditions: Echinochloa crus-galli, post-emergence, 240 h, 0 to 100 scale, 0 is no effect, 100 is complete control, read-out: Plant response rating, Barnyardgrass; for pest or weed control at 125 g/ha: 125 g ai/ha; for pest or weed control at 500 g/ha: 500 g ai/ha
How it was run: as §1

kochia (Kochia scoparia) [8] = experiment: Test A postemergence kochia; conditions: Bassia scoparia, post-emergence, 240 h, 0 to 100 scale, 0 is no effect, 100 is complete control, read-out: Plant response rating, Kochia; for pest or weed control at 125 g/ha: 125 g ai/ha; for pest or weed control at 500 g/ha: 500 g ai/ha
How it was run: as §1

[9] = tested on: ragweed (common ragweed, Ambrosia elatior); experiment: Test A postemergence ragweed; conditions: Ambrosia artemisiifolia, post-emergence, 240 h, 0 to 100 scale, 0 is no effect, 100 is complete control, read-out: Plant response rating, Ragweed; for pest or weed control at 125 g/ha: 125 g ai/ha; for pest or weed control at 500 g/ha: 500 g ai/ha
How it was run: as §1

[10] = tested on: ryegrass, Italian (Italian ryegrass, Lolium multiflorum); experiment: Test A postemergence ryegrass, Italian; conditions: Lolium multiflorum, post-emergence, 240 h, 0 to 100 scale, 0 is no effect, 100 is complete control, read-out: Plant response rating, Ryegrass, Italian; for pest or weed control at 125 g/ha: 125 g ai/ha; for pest or weed control at 500 g/ha: 500 g ai/ha
How it was run: as §1

[11] = tested on: foxtail, giant (giant foxtail, Setaria faberii); experiment: Test A postemergence foxtail, giant; conditions: Setaria faberi, post-emergence, 240 h, 0 to 100 scale, 0 is no effect, 100 is complete control, read-out: Plant response rating, Foxtail, Giant; for pest or weed control at 125 g/ha: 125 g ai/ha; for pest or weed control at 500 g/ha: 500 g ai/ha
How it was run: as §1

[12] = tested on: pigweed (Amaranthus retroflexus); experiment: Test A postemergence pigweed; conditions: Amaranthus retroflexus, post-emergence, 240 h, 0 to 100 scale, 0 is no effect, 100 is complete control, read-out: Plant response rating, Pigweed; for pest or weed control at 125 g/ha: 125 g ai/ha; for pest or weed control at 500 g/ha: 500 g ai/ha
How it was run: as §1

[13] = tested on: wheat (Triticum aestivum); experiment: Test A postemergence wheat; conditions: Triticum aestivum, post-emergence, 240 h, 0 to 100 scale, 0 is no effect, 100 is complete control, read-out: Plant response rating, Wheat; for plant injury at 125 g/ha: 125 g ai/ha; for plant injury at 500 g/ha: 500 g ai/ha
How it was run: as §1

corn (Zea mays) = experiment: Test A postemergence corn; conditions: Zea mays, post-emergence, 240 h, 0 to 100 scale, 0 is no effect, 100 is complete control; for Corn plant response rating (crop injury, 0 = no effect, 100 = complete kill) at 125 g/ha: 125 g ai/ha; for Corn plant response rating (crop injury, 0 = no effect, 100 = complete kill) at 500 g/ha: 500 g ai/ha
How it was run: as §1

[14] = tested on: blackgrass (Alopecurus myosuroides); experiment: Test A postemergence blackgrass; conditions: Alopecurus myosuroides, post-emergence, 240 h, 0 to 100 scale, 0 is no effect, 100 is complete control, read-out: Plant response rating, Blackgrass; for pest or weed control at 125 g/ha: 125 g ai/ha; for pest or weed control at 500 g/ha: 500 g ai/ha
How it was run: as §1

[15] = tested on: galium (catchweed bedstraw, Galium aparine); experiment: Test A postemergence galium; conditions: Galium, post-emergence, 240 h, 0 to 100 scale, 0 is no effect, 100 is complete control, read-out: Plant response rating, Galium; for pest or weed control at 125 g/ha: 125 g ai/ha; for pest or weed control at 500 g/ha: 500 g ai/ha
How it was run: as §1

rice (Oryza sativa) = experiment: Test B flooded paddy test rice; conditions: Oryza sativa, Table B, Flood, 250 g ai/ha, scale 0 to 100, read-out: Plant response rating
How it was run: (§2)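 Once seedlings reached two leaves, pots were flooded 3 cm deep and treated via the paddy water, which remained at that level. Evaluation was visual, against controls, after 13 to 15 d under greenhouse conditions.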

[16] = tested on: sedge, umbrella (small-flower umbrella sedge, Cyperus difformis); experiment: Test B flooded paddy test sedge, umbrella; conditions: Cyperus difformis, Table B, Flood, 250 g ai/ha, scale 0 to 100, read-out: Plant response rating
How it was run: as §2

[17] = tested on: ducksalad (Heteranthera limosa); experiment: Test B flooded paddy test ducksalad; conditions: Heteranthera limosa, Table B, Flood, 250 g ai/ha, scale 0 to 100, read-out: Plant response rating
How it was run: as §2

[18] = tested on: barnyardgrass (Echinochloa crus-galli); experiment: Test B flooded paddy test barnyardgrass; conditions: Echinochloa crus-galli, Table B, Flood, 250 g ai/ha, scale 0 to 100, read-out: Plant response rating
How it was run: as §2

| SMILES | pest or weed control at 125 g/ha [1] | pest or weed control at 500 g/ha [1] | pest or weed control at 125 g/ha (kochia (Kochia scoparia) [2]) | pest or weed control at 500 g/ha (kochia (Kochia scoparia) [2]) | pest or weed control at 125 g/ha [3] | pest or weed control at 500 g/ha [3] | pest or weed control at 125 g/ha [4] | pest or weed control at 500 g/ha [4] | pest or weed control at 125 g/ha [5] | pest or weed control at 500 g/ha [5] | pest or weed control at 125 g/ha [6] | pest or weed control at 500 g/ha [6] | pest or weed control at 125 g/ha [7] | pest or weed control at 500 g/ha [7] | pest or weed control at 125 g/ha (kochia (Kochia scoparia) [8]) | pest or weed control at 500 g/ha (kochia (Kochia scoparia) [8]) | pest or weed control at 125 g/ha [9] | pest or weed control at 500 g/ha [9] | pest or weed control at 125 g/ha [10] | pest or weed control at 500 g/ha [10] | other results |
| --- | --- | --- | --- | --- | --- | --- | --- | --- | --- | --- | --- | --- | --- | --- | --- | --- | --- | --- | --- | --- | --- |
| CN1CC[C@H](c2ccc(F)cc2)[C@@H](C(=O)Nc2cccc(F)c2F)C1=O [Compound 52, (3S,4S)—N-(2,3-difluorophenyl)-4-(4-fluorophenyl)-1-methyl-2-oxo-3-piperidinecarboxamide] | 90% | 90% | 0% | 20% | 20% | 30% | 20% | 30% | 90% | 90% | 30% | 80% | 70% | 90% | 0% | 20% | 0% | 0% | 0% | 20% | pest or weed control at 125 g/ha [11]: 80%; pest or weed control at 500 g/ha [11]: 80%; pest or weed control at 125 g/ha [12]: 0%; pest or weed control at 500 g/ha [12]: 0%; plant injury at 125 g/ha [13]: 0%; plant injury at 500 g/ha [13]: 20%; Corn plant response rating (crop injury, 0 = no effect, 100 = complete kill) at 125 g/ha (corn (Zea mays)): 0%; Corn plant response rating (crop injury, 0 = no effect, 100 = complete kill) at 500 g/ha (corn (Zea mays)): 10%; pest or weed control at 125 g/ha [14]: 0%; pest or weed control at 500 g/ha [14]: 0%; pest or weed control at 125 g/ha [15]: 0%; pest or weed control at 500 g/ha [15]: 50%; plant injury at 250 g/ha (rice (Oryza sativa)): 0%; pest or weed control at 250 g/ha [16]: 0%; pest or weed control at 250 g/ha [17]: 100%; pest or weed control at 250 g/ha [18]: 30% |
| CN1CC[C@H](c2ccc(F)cc2)[C@@H](C(=O)Nc2ccccc2C(F)(F)F)C1=O [Compound 53, (3S,4S)-4-(4-fluorophenyl)-1-methyl-2-oxo-N-[2-(trifluoromethyl)phenyl]-3-piperidinecarboxamide] | 0% | 80% | 0% | 0% | 0% | 0% | 0% | 0% | 0% | 90% | 0% | 50% | 0% | 0% | 0% | 0% | 0% | 0% | 0% | 0% | pest or weed control at 125 g/ha [11]: 0%; pest or weed control at 500 g/ha [11]: 20%; pest or weed control at 125 g/ha [12]: 0%; pest or weed control at 500 g/ha [12]: 0%; plant injury at 125 g/ha [13]: 0%; plant injury at 500 g/ha [13]: 20%; Corn plant response rating (crop injury, 0 = no effect, 100 = complete kill) at 125 g/ha (corn (Zea mays)): 0%; Corn plant response rating (crop injury, 0 = no effect, 100 = complete kill) at 500 g/ha (corn (Zea mays)): 20%; pest or weed control at 125 g/ha [14]: 0%; pest or weed control at 500 g/ha [14]: 20%; pest or weed control at 125 g/ha [15]: 0%; pest or weed control at 500 g/ha [15]: 0%; plant injury at 250 g/ha (rice (Oryza sativa)): 0%; pest or weed control at 250 g/ha [16]: 0%; pest or weed control at 250 g/ha [17]: 0%; pest or weed control at 250 g/ha [18]: 0% |
